This note sets out measurements from US20260152724A1, “SMALL INTESTINE EPITHELIUM-LIKE CELLS AND PRODUCTION METHOD THEREOF” (OSAKA UNIVERSITY, priority 2022, published 2026).

The test system of data set [1] is definitive endoderm cells. Description: Induction of differentiation from definitive endoderm cells into intestinal progenitor cells, marker gene expression by qRT-PCR (Example 1). Type of data set: cell-based, human. To be noted: 4 days. The text has this: This Example examined a differentiation-inducing action in a culture system containing each concentration of retinoic acid or a GSK3β inhibitor, which was known to be important in differentiation from definitive endoderm. To induce differentiation from definitive endoderm cells into intestinal progenitor cells, the medium B shown in Reference Example 2 was used as a basal medium.
Then, RNAs were recovered and analyzed for gene expression levels of an intestinal progenitor cell marker CDX2, a hepatic progenitor cell marker AFP, and a pancreatic progenitor cell marker PDX1 by quantitative RT-PCR (qRT-PCR). The quantitative RT-PCR was performed according to a common method. Total RNAS were recovered and CDNAS were synthesized. Complementary DNAs (cDNAs) were subjected to qRT-PCR with Fast SYBR Green Master Mix (Applied Biosystems) and quantification with StepOnePlus Real time PCR system (Applied Biosystems). A glyceraldehyde 3-phosphate dehydrogenase (GAPDH) gene was used as an internal standard gene. In addition, each gene expression level of DMSO-treated groups, which were controls, was set to 1.0. Data was shown with n=3, mean±standard deviation, but n=2 for each LY (10 nM and 30 nM). A detection limit was represented by N.D.
In general terms: Quantitative PCR measures a nucleic acid by following its amplification.

Data set [2] concerns intestinal progenitor cells. Description: MEK inhibitor in differentiation from intestinal progenitor cells into ELCs, gene expression by qRT-PCR (Example 3). Type of data set: cell-based, human. Conditions: PD 3 μM in medium C for 10 days, PD(+) versus PD(−); Conditions 2 and 3. The method, then: This Example investigated the action of a MEK inhibitor in a stage of inducing differentiation from intestinal progenitor cells into enterocyte-like cells (ELCs). PD0325901 (MedChemExpress LLC) was used as the MEK inhibitor. PD0325901 is sometimes abbreviated as PD in this Example and Examples described below. In a step from definitive endoderm cells to intestinal progenitor cells, culture e was performed under Conditions 2 and 3 shown in Table 3 in Example 2 according to the protocol illustrated in FIG. 3(1). […] Thus, the cells were induced to differentiate into enterocyte-like cells (ELCs). Subsequently, RNAs were recovered by the same procedure as in Example 1, and analyzed for each gene expression level of VIL1, CYP3A4, and MDR1 by qRT-PCR by the same method as in Example 2. Each gene expression level in an adult small intestine was set to 1.0. Data was shown with n=3, mean±standard deviation.

Data set [3] concerns CYP3A4. Briefly: Elimination of a humoral factor from medium K in ELC monolayer culture, CYP3A4 activity (Example 9). The method, then: (§1) Further, CYP3A4 activity was checked. The CYP3A4 activity was measured with P450-Glo™ CYP3A4 Assay Kits (Promega Corporation). […] The CYP3A4 activity was corrected by the amount of a protein per well measured with BCA Protein Assay Kit (Thermo Fisher Scientific Inc.).
This Example investigated an influence of a humoral factor in ELC monolayer culture. […] In this Example, culture was performed with addition of the medium to only an upper stage A in a cell culture insert (Corning Incorporated) used in monolayer culture (FIG. 9(1)).

For data set [4], the system named is CYP3A4. Description: CYP3A4 activity of ELCs, P450-Glo CYP3A4 assay (Example 3). It counts as cell-based, human. Conditions: PD 3 μM in medium C for 10 days, PD(+) versus PD(−); Luciferin-IPA substrate, corrected by protein per well. Here is the method:
as §1

A further data set concerns P-gp. Description: Elimination of a humoral factor from medium K in ELC monolayer culture, P-gp activity (Example 9). Conditions: ELC monolayer (day 27 2D K), 6 days in medium K without the factor; digoxin substrate. Type of data set: cell-based, human. The method, then: P-gp is an efflux transporter, and its activity was measured by allowing 1 μM digoxin to act through use of digoxin, [^3H (G)]-(PerkinElmer) and digoxin (Asahi Kasei Corporation) as substrate compounds, and allowing 100 μM verapamil to act as an inhibitor.

Setting [5] is: RA at each concentration (3, 10, 20, 30 μM) in medium B, DMSO-treated group = 1.0.

Read-outs that look alike come from different tables or passages of the source.

Take `Cc1c[nH]c(-c2cnc(NCCNc3ccc(C#N)cn3)nc2-c2ccc(Cl)cc2Cl)n1` [CHIR, CHIR99021]: the “expression of CDX2” value in data set [1] (CHIR at 10 μM (of 3, 10, 20 μM) in medium B) was “highest expression”. In data set [1] (CHIR at 10 μM in medium B), the “expression of AFP” value was “low expressions” and the “expression of PDX1” value is “low expressions”.
Turning to `O=C1NC(=O)C(c2cnc3ccccn23)=C1c1cn2c3c(cc(F)cc13)CN(C(=O)N1CCCCC1)CC2` [LY, LY2090314], the “expression of CDX2” value in data set [1] (LY at 20 nM (of 3, 10, 20, 30 nM) in medium B) is “highest expression”. In addition, in data set [1] (LY at 20 nM in medium B), the “expression of AFP (hepatic progenitor cell marker)” value was “low expressions” and the “expression of PDX1” value is on record as “low expressions”.
In the case of `O=C(NOC[C@H](O)CO)c1ccc(F)c(F)c1Nc1ccc(I)cc1F` [PD, PD0325901], in data set [2], the “gene expression level of CYP3A4” value is “clearly higher values” and the “gene expression level of MDR1” value is on record as “clearly higher values”. Besides, the “CYP3A4 activity on elimination of the factor from medium K” value (“CYP3A4 activity on elimination” below) with CYP3A4 [3] is reported as “greatly decreased”. Besides, in the data set with CYP3A4 [4], the CYP3A4 activity result is on record as “clearly higher value”.
For `CC1=C(/C=C/C(C)=C/C=C/C(C)=C/C(=O)O)C(C)(C)CCC1` [RA, all-trans-Retinoic Acid], in data set [1] (setting [5]), the “expression level of CDX2 (intestinal progenitor cell marker)” value is reported as “high expression levels” and the “expression level of PDX1 (pancreatic progenitor cell marker)” value was “high expression levels”.
On to `NC(=O)c1ccc(-c2nc(-c3ccc4c(c3)OCO4)c(-c3ccccn3)[nH]2)cc1` [SB431542], for which, in the data set on CYP3A4 [3], the “CYP3A4 activity on elimination” value was “significantly increased”.
With `C=C1/C(=C\C=C2/CCC[C@]3(C)[C@@H]([C@H](C)CCCC(C)(C)O)CC[C@@H]23)C[C@@H](O)C[C@@H]1O` [Vitamin D3, 1α,25-Dihydroxyvitamin D3], the “CYP3A4 activity on elimination” value in the data set on CYP3A4 [3] (ELC monolayer (day 27 2D K), 6 days in medium K without the factor) is on record as “greatly decreased”.
In the case of “EGF: Epidermal growth factor, component of medium K”, the “P-gp activity on elimination of the factor from medium K” value with P-gp is “no influence”. Moreover, the “CYP3A4 activity on elimination” value in the data set with CYP3A4 [3] is “significantly increased”.
